According to patent publication US20010036949A1, “Pharmaceutical composition and method of treatment of diseases of cognitive dysfunction in a mammal” (priority 2000, published 2001):

Tests used:
human m2 receptor = target: T1, human m2 receptor (Homo sapiens, UniProt P08172); assay: Inhibition of forskolin-stimulated cAMP accumulation, m2 receptor; assay type: cell-based; settings: standard agonist, typical value, 5 uM forskolin
T1 sequence (P08172 1-466): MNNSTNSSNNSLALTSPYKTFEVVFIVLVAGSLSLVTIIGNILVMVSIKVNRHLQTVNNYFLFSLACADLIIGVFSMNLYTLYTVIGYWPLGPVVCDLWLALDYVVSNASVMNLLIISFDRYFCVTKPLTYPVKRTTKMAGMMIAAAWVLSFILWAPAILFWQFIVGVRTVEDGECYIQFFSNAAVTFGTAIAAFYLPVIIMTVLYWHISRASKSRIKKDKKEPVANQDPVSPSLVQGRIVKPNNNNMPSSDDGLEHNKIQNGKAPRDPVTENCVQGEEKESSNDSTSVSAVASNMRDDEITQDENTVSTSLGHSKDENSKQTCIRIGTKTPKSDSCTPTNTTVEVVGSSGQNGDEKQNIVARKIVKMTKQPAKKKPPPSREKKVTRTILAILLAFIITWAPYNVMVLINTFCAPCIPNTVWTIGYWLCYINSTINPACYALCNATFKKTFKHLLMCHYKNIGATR
Procedure: (§1) The activity of muscarinic receptors can be determined according to the following protocol. Chinese hamster ovary cells (CHO-K1) stably transformed to express human m1-m5_receptors can be obtained from Dr. Tom Bonner (Laboratory of Cell Biology, National Institute of Mental Health, Building 36, Rm 3A-17, National Institute of Health, Bethesda, Md. 20892). Cells are maintained in Dulbecco's Modified Eagle Medium containing 10% fetal calf serum and harvested at confluence by brief incubation in Ca++/Mg++_free phosphate-buffered saline containing 4 mM EDTA.
(§2) Functional responses at m2 and m4 receptors can be determined by measuring inhibition of forskolin-stimulated cAMP accumulation. Harvested cells are preincubated (15 minutes at 20-22° C.) with 3-isobutyl-1-methyl-xanthine ([…]; 0.2 mM) and then incubated (10 minutes at 20-22° C.) in a HEPES-buffered Krebs solution with test compounds in the presence of 5 uM forskolin. The reaction is stopped by the addition of 10N acetic acid and the CAMP content of dried supernatants is determined using a scintillation proximity assay (Amersham).

human m4 receptor = target: T2, human m4 receptor (Homo sapiens, UniProt P08173); assay: Inhibition of forskolin-stimulated cAMP accumulation, m4 receptor; assay type: cell-based; settings: standard agonist, typical value, 5 uM forskolin
T2 construct: host or cells: CHO-K1
T2 sequence (P08173 1-479): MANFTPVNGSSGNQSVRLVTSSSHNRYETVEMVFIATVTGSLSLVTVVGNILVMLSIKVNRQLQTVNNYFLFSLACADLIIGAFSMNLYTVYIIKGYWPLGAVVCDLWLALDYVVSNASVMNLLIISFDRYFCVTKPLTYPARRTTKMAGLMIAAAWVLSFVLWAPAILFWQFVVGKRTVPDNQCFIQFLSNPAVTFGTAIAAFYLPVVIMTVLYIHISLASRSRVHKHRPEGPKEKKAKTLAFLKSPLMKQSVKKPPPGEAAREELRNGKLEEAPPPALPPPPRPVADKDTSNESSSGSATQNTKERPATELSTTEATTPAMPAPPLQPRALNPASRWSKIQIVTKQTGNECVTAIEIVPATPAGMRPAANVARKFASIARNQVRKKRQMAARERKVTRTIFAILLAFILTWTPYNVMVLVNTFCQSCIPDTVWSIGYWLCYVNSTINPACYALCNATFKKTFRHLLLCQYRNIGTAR
Procedure: as §1, §2

inhibition of the forskolin-stimulated cAMP levels (human m2 receptor): 60-80%
inhibition of the forskolin-stimulated cAMP levels (human m4 receptor): 60-80%
SMILES: C[N+](C)(C)CCOC(N)=O [Carbachol]
